# Columns and labels:
# Sprague Dawley rats [1] = settings: rat, in vivo
# Sprague Dawley rats [2] = settings: rat, in vivo; cited from earlier work
smiles,measurement,setting,value
CN(C)C(=O)Oc1ccc[n+](C)c1 [pyridostigimine],side effects in treated rats,Sprague Dawley rats [1],no side effects
same,pyridostigmine-induced signs of toxicity,Sprague Dawley rats [2],"ocular discharge, nasal discharge, hypoactivity, prostration, ataxia, diarrhea, hunched posture, thin appearance and death"

# From patent US11129822B2 (priority 2016, dated 2021)
